Measured values reported in patent US10159685B2, “Vascular calcification” (Cambridge Enterprise Limited, priority 2016, dated 2018).
Read-outs that look alike come from different tables or passages of the source. Marks after values point to notes of the source that are not given here.

Assays:
[1] = system: PARP produced by a mammalian cell; details: have been shown; cited from earlier work
[2] = system: human monocyte-macrophages (HMMs); assay: MTT toxicity assay, HMMs, seven days (Example 3); format: cell-based; details: 7 days; for Cell viability by MTT, percent of control: mean of three experiments
Method: A similar set of toxicity experiments was performed with human monocyte-macrophages (HMMs).

[3] = system: bovine vascular smooth muscle cells (bVSMCs); assay: Alizarin Red S staining, bVSMC GAD calcification model (Example 4); format: cell-based; details: GAD-treated bVSMCs, 10 μM, 7 d, versus no inhibitor
Method: (§1) For the bVSMCs a GAD medium (10 mM β-glycerophosphate/0.1 mM L-ascorbic acid-2-phosphate/10 nM dexamethasone) model was used to induce mineralization in bVSMCs. Accordingly, cells were seeded in tissue culture plates using M199/20% FCS culture medium and cultured overnight. The next day, cells were treated either with medium only (M199/5% FBS)+/−inhibitors, or with the GAD-medium (10 mM β-glycerophosphate/0.1 mM L-ascorbic acid-2-phosphate/[…] dexamethasone)+/−inhibitors.
Medium+/−inhibitors was exchanged every 2-3 days. Bovine VSMCs were incubated for 7 d prior to assessment.
The Alizarin Red S staining is a visual/histological stain for tissue calcium deposits. Cells are briefly fixed in 4% paraformaldehyde/PIPES buffer pH 7.2 and subsequently stained for 5 min with Alizarin Red S (2% Alizarin Red S/DIW pH 4.2). Excess stain is removed by washing in DIW. Calcium mineral deposits are stained a bright orange red.

[4] = system: bovine vascular smooth muscle cells (bVSMCs); assay: o-Cresolphthalein Ca2+ assay, bVSMC GAD calcification model (Examples 4 and 5); format: cell-based
Method: as §1
Medium+/−inhibitors was exchanged every 2-3 days. […]
The o-Cresolphthalein assay is a spectrophotometric method for measuring Ca^2+-concentrations in cell/tissue lysates. Following the calcification experiments, cells are briefly washed to remove medium and 100 […]1 of 0.1 N HCl is added to each well to dissolve any mineral deposits. Then, the Ca^2+-concentration of the samples is measured spectrophotometrically (at 570 nm) in the o-cresolphthalein assay with the help of a CaCl2 standard curve in a concentration range of ˜0.02-270 µg Ca^2+/ml.
The commercial BioRad DC protein assay is based on the Lowry method, aka reaction of proteins with a copper-tartrate complex and subsequent reaction with Folin's reagent. Following the calcification experiment, cells are briefly washed to remove medium and 100 µl of solubilisation solution (0.1 M NaOH/1% SDS/DIW) is added to each well to lyse the cells. The protein concentrations of the lysates are subsequently determined in the BioRad DC assay as per supplier's instructions using BSA (bovine serum albumin) as standard.
The in vitro model is the same as the model used in example 4; bovine vascular smooth muscle cells (bVSMCs) cultured so that they produce extracellular matrix, with the addition of the GAD medium (10 mM β-glycerophosphate/0.1 mM L-ascorbic acid-2-phosphate/10 nM dexamethasone).
As above, cells were treated either with medium only (“no-additions”; NA)+/−inhibitors, or with the GAD-medium+/−inhibitors. The inhibitors used were PJ34 and minocyclin (MC) at 10 μM, 1 μM and 0.1 μM.
The methodology was the same as that described in example 4.

[5] = system: human vascular smooth muscle cells (hVSMCs); assay: o-Cresolphthalein Ca2+ assay, hVSMC Ca/P calcification model (Examples 7-9); format: cell-based; details: hVSMCs, 6 days; PJ34 10 μM; minocycline and cilostazol 0.5, 1 and 2 μM
Method: (§2) Primary hVSMCs were cultured in M199 media containing FBS (M199/5% FBS). They were plated at a known cell density, allowed to grow for 24 hours and then treated with control (DMSO only) or calcification media (DMSO containing 2.7 mM Calcium+2.5 mM phosphate)+/−inhibitors. After 6 days, calcification was assessed using the o-Cresolphthalein assay for quantification of Ca^2+ deposition and a BioRad protein assay for protein content.
Medium+/−inhibitors was exchanged every 2-3 days.
as §2, with “8” for “6”, “using” for “using the”
All of the compounds tested were used at a concentration of 3 μM. Medium+/−inhibitors was exchanged every 2-3 days.
as §2, with “phosphate)+/−compounds.” for “phosphate)+/−inhibitors.”, “8” for “6”, “using” for “using the”
These concentrations were chosen to mimic the systemic concentrations of these drugs following patient dosing according to the dose schedule in the prescribing information for each drug. Medium+/−inhibitors was exchanged every 2-3 days.

[6] = system: bovine vascular smooth muscle cells (bVSMCs); assay: MTT cell viability assay, bVSMCs with or without GAD medium, 7 or 9 days (Example 5); format: cell-based
Method: As above, cells were treated either with medium only (“no-additions”; NA)+/−inhibitors, or with the GAD-medium+/−inhibitors. […] Additionally, an MTT assay was performed as a measure of cell viability/proliferation. Bovine VSMCs were seeded in 96 well plates and cultured in M199/20% FCS for 1 day. Then, the cells were incubated with inhibitor concentrations of 10 μM, 1 μM and 0.1 μM (in M199 medium+5% FBS). […] Then, the MTT assay was performed.

[7] = system: bovine vascular smooth muscle cells (bVSMCs); format: cell-based; details: 7 days; for Cell viability of bVSMCs after seven days (MTT signal, relative to control): mean of three experiments
Method: The toxicity of the identified compounds to bovine VSMCs was measured using the MTT assay, which measures the activity of dehydrogenase enzymes of live cells. This assay can pick up both cell death and proliferation.
Bovine VSMCs were seeded in 96 well plates and cultured in M199/20% FCS for 1 day. Then, the cells were incubated with inhibitor concentrations from 0.5 to 100 μM (in M199 medium+5% FBS). The cells were incubated with the inhibitors for 7 days; every 2-3 days the medium −/+inhibitors was exchanged. Then, the MTT assay was performed. The stock vehicle DMSO was tested at corresponding concentrations to the inhibitors at 0.1% DMSO or less.

[8] = cited from earlier work
[9] = human, in vivo

SMILES: CN(C)CC(=O)Nc1ccc2[nH]c(=O)c3ccccc3c2c1.Cl [PJ34, N-(6-Oxo-5,6-dihydrophenanthridin-2-yl)-(N,N-dimethylamino)acetamide hydrochloride]
- Inhibition of PARP produced by a mammalian cell [1]: inhibit PARP
- Cell viability by MTT, percent of control ([2]; 0.5 uM): 106.63
- Cell viability by MTT, percent of control ([2]; 1 uM): 88.38
- Cell viability by MTT, percent of control ([2]; 2 uM): 84.08
- Cell viability by MTT, percent of control ([2]; 5 uM): 95.65
- Cell viability by MTT, percent of control ([2]; 10 uM): 77.14
- Cell viability by MTT, percent of control ([2]; 20 uM): 74.86
- Cell viability by MTT, percent of control ([2]; 50 uM): 60.33*
- Cell viability by MTT, percent of control ([2]; 100 uM): 37.30*
- Toxicity to HMMs (in words) ([2]; at a concentration of 100 μM): most toxic
- Degree of mineralization judged by eye (Alizarin Red S, FIG. 6) [3]: slightly worse
- Calcium levels (mass of calcium, FIG. 7B) compared to no inhibitors ([4]; GAD-treated bVSMCs, 10 μM, 7 d): elevate calcium levels
- Normalised calcium levels (mass of calcium per mass of protein, FIG. 9B) ([4]; GAD-treated bVSMCs, 10 μM, 7 d): elevate calcium levels
- Effect on calcification (in words, discussion of Example 5) ([4]; bVSMC GAD model): encouraging calcification
- Ca^2+ concentration found in bVSMCs, mean ([4]; nine days, no GAD, 0.1 μM): 1.438 μg calcium/ml
- Ca^2+ concentration found in bVSMCs, mean ([4]; nine days, no GAD, 1 μM): 1.179 μg calcium/ml
- Ca^2+ concentration found in bVSMCs, mean ([4]; nine days, no GAD, 10 μM): 1.061 μg calcium/ml
- Ca^2+ concentration found in bVSMCs, mean ([4]; nine days, with GAD, 0.1 μM): 22.69 μg calcium/ml
- Ca^2+ concentration found in bVSMCs, mean ([4]; nine days, with GAD, 1 μM): 132.87 μg calcium/ml
- Ca^2+ concentration found in bVSMCs, mean ([4]; nine days, with GAD, 10 μM): 66.68 μg calcium/ml
- Ca^2+ concentration found in bVSMCs, mean ([4]; seven days, no GAD, 0.1 μM): 0.612 μg calcium/ml
- Ca^2+ concentration found in bVSMCs, mean ([4]; seven days, no GAD, 1 μM): 0.565 μg calcium/ml
- Ca^2+ concentration found in bVSMCs, mean ([4]; seven days, no GAD, 10 μM): 0.561 μg calcium/ml
- Ca^2+ concentration found in bVSMCs, mean ([4]; seven days, with GAD, 0.1 μM): 1.84 μg calcium/ml
- Ca^2+ concentration found in bVSMCs, mean ([4]; seven days, with GAD, 1 μM): 4.06 μg calcium/ml
- Ca^2+ concentration found in bVSMCs, mean ([4]; seven days, with GAD, 10 μM): 4.93 μg calcium/ml
- Calcium levels (mass of calcium, FIG. 17) versus DMSO Ca+P positive control [5]: reduce the calcium levels
- Normalised calcium levels (mass of calcium per mass of protein, FIG. 19) [5]: lower calcium levels significantly
- Cell viability (%) mean ([6]; nine days, no GAD, 0.1 μM): 99.88%
- Cell viability (%) mean ([6]; nine days, no GAD, 1 μM): 97.1%
- Cell viability (%) mean ([6]; nine days, no GAD, 10 μM): 98.3%
- Cell viability (%) mean ([6]; nine days, with GAD, 0.1 μM): 69.43%
- Cell viability (%) mean ([6]; nine days, with GAD, 1 μM): 59.06%
- Cell viability (%) mean ([6]; nine days, with GAD, 10 μM): 69.43%
- Cell viability (%) mean ([6]; seven days, no GAD, 0.1 μM): 93.81%
- Cell viability (%) mean ([6]; seven days, no GAD, 1 μM): 97.16%
- Cell viability (%) mean ([6]; seven days, no GAD, 10 μM): 99.25%
- Cell viability (%) mean ([6]; seven days, with GAD, 0.1 μM): 96.46%
- Cell viability (%) mean ([6]; seven days, with GAD, 1 μM): 94.61%
- Cell viability (%) mean ([6]; seven days, with GAD, 10 μM): 90.03%
- Cell viability of bVSMCs after seven days (MTT signal, relative to control) ([7]; 0.5 uM): 102.59
- Cell viability of bVSMCs after seven days (MTT signal, relative to control) ([7]; 1 uM): 98.89
- Cell viability of bVSMCs after seven days (MTT signal, relative to control) ([7]; 2 uM): 92.33
- Cell viability of bVSMCs after seven days (MTT signal, relative to control) ([7]; 5 uM): 95.74
- Cell viability of bVSMCs after seven days (MTT signal, relative to control) ([7]; 10 uM): 97.07
- Cell viability of bVSMCs after seven days (MTT signal, relative to control) ([7]; 20 uM): 99.71
- Cell viability of bVSMCs after seven days (MTT signal, relative to control) ([7]; 50 uM): 80.83*
- Cell viability of bVSMCs after seven days (MTT signal, relative to control) ([7]; 100 uM): 53.72*
- Toxicity to bVSMCs (MTT assay, in words) ([7]; at 50 and 100 μM): toxic
- Cell death in bVSMCs (FIG. 4A and example 2) ([7]; bVSMCs): induce some cell death

SMILES: CN(C)c1ccc(O)c2c1C[C@H]1C[C@H]3[C@H](N(C)C)C(O)=C(C(N)=O)C(=O)[C@@]3(O)C(O)=C1C2=O [minocycline]
- inhibition at 1 µM ([4]; Bos taurus, 216 h, bVSMCs, GAD medium, nine days, 1 μM, read-out: Reduction of Ca^2+ deposition compared to no potential inhibitor): ~38%
- inhibition at 10 µM ([4]; Bos taurus, 216 h, bVSMCs, GAD medium, nine days, 10 μM, read-out: Reduction of Ca^2+ deposition compared to no potential inhibitor): ~81%
- Concentration at which calcification is inhibited (as low as) ([4]; bVSMC GAD model, Example 5): 1 µM
- Ca^2+ concentration found in bVSMCs, mean ([4]; nine days, no GAD, 0.1 μM): 1.484 μg calcium/ml
- Ca^2+ concentration found in bVSMCs, mean ([4]; nine days, no GAD, 1 μM): 1.327 μg calcium/ml
- Ca^2+ concentration found in bVSMCs, mean ([4]; nine days, no GAD, 10 μM): 0.925 μg calcium/ml
- Ca^2+ concentration found in bVSMCs, mean ([4]; nine days, with GAD, 0.1 μM): 26.16 μg calcium/ml
- Ca^2+ concentration found in bVSMCs, mean ([4]; nine days, with GAD, 1 μM): 21.35 μg calcium/ml
- Ca^2+ concentration found in bVSMCs, mean ([4]; nine days, with GAD, 10 μM): 3.74 μg calcium/ml
- Ca^2+ concentration found in bVSMCs, mean ([4]; seven days, no GAD, 0.1 μM): 0.654 μg calcium/ml
- Ca^2+ concentration found in bVSMCs, mean ([4]; seven days, no GAD, 1 μM): 0.595 μg calcium/ml
- Ca^2+ concentration found in bVSMCs, mean ([4]; seven days, no GAD, 10 μM): 0.523 μg calcium/ml
- Ca^2+ concentration found in bVSMCs, mean ([4]; seven days, with GAD, 0.1 μM): 1.79 μg calcium/ml
- Ca^2+ concentration found in bVSMCs, mean ([4]; seven days, with GAD, 1 μM): 2 μg calcium/ml
- Ca^2+ concentration found in bVSMCs, mean ([4]; seven days, with GAD, 10 μM): 2.38 μg calcium/ml
- maximum concentration (Cmax) in a patient's bloodstream ([8]; 50 mg oral dose): 0.65 micrograms/mL
- half-life in the body ([8]; in vivo): approximately 12 hours
- Cell viability (%) mean ([6]; nine days, no GAD, 1 μM): 96.64%
- Cell viability (%) mean ([6]; nine days, no GAD, 10 μM): 105.1%
- Cell viability (%) mean ([6]; nine days, with GAD, 0.1 μM): 74.53%
- Cell viability (%) mean ([6]; nine days, with GAD, 1 μM): 72.42%
- Cell viability (%) mean ([6]; nine days, with GAD, 10 μM): 105.89%
- Drop off in formazan production (MTT) in the GAD-treatment group ([6]; nine days, with GAD, 10 μM): not observed
- Cell viability (%) mean ([6]; seven days, no GAD, 0.1 μM): 94.56%
- Cell viability (%) mean ([6]; seven days, no GAD, 1 μM): 91.09%
- Cell viability (%) mean ([6]; seven days, no GAD, 10 μM): 95.49%
- Cell viability (%) mean ([6]; seven days, with GAD, 1 μM): 96.84%
- Cell viability (%) mean ([6]; seven days, with GAD, 10 μM): 102.07%
- Toxicity to bVSMCs (MTT assay, in words) ([7]; at the concentrations tested (0.5 to 100 μM)): non-toxic
- dosage needed to reach the concentration of 0.46 micrograms/mL [9]: approximately 20 mg
